Test results: US20230357240A1, “NOVEL N-HETEROCYCLIC BET BROMODOMAIN INHIBITOR, AND PREPARATION METHOD THEREOF AND MEDICAL USE THEREOF” (Chengdu Easton Biopharmaceuticals Co., Ltd., priority 2020, published 2023)
pIC50: −log10 of the molar value. Like-named read-outs stand apart in the source and are kept apart here.

Assays:
[1] = test system: MV4-11 cell; assay: MV4-11 cell proliferation experiment (CCK-8 cell viability); format: cell-based; settings: Homo sapiens, MV4-11 cells, 72-hour culture
Protocol: EXAMPLE 9 Cell Experiment (MV4-11 Cell Proliferation Experiment)
Determination of Cell Viability with CCK-8 Reagent
(1) MV4-11 cell suspension was pipetted from a culture flask into a 15 mL centrifuge tube, and the cell suspension was centrifuged at 1000 rpm for 4 minutes.
(2) A supernatant in the centrifuge tube was discarded, and an appropriate amount of fresh complete medium (IMDM+10% FBS+1% P/S) was added to resuspend the cells. 20 μL of cell suspension was collected, 20 μL of trypan blue was added, and CounterStar was used for counting.
(3) A required cell suspension volume and complete medium volume were calculated according to viable cell density and the required number of plated cells. MV4-11 cells were plated at a density of 1*10^4 cells/well in 100 μL/well.
(4) 100 μL of the above cell suspension was pipetted into a 96-well plate by using an electric pipette. 150 μL of complete medium was added to blank control wells. PBS was added to peripheral wells of the 96-well plate, to avoid liquid evaporation. The 96-well plate was cultured overnight in an incubator.
Day 2: Compound Preparation:
(1) The compound of the present application dissolved in DMSO and the positive control substance ABBV-744 were fetched, and subjected to serial dilution (dilution in column A, column B, . . . , column J sequentially from left to right in a 96-well PCR plate).
An initial concentration of the solution in column A is 10 mM;
Column B: 2 μL of the solution in column A was diluted with 8 μL of DMSO to obtain a final concentration of 2000 μM;
Column C: 2 μL of the solution in column B was diluted with 8 μL of DMSO to obtain a final concentration of 400 μM;
Column D: 2 μL of the solution in column C was diluted with 8 μL of DMSO to obtain a final concentration of 80 μM;
Column E: 2 μL of the solution in column D was diluted with 8 μL of DMSO to obtain a final concentration of 16 μM;
Column F: 2 μL of the solution in column E was diluted with 8 μL of DMSO to obtain a final concentration of 3.2 μM;
Column G: 2 μL of the solution in column F was diluted with 8 μL of DMSO to obtain a final concentration of 0.64 μM;
Column H: 2 μL of the solution in column G was diluted with 8 μL of DMSO to obtain a final concentration of 0.128 μM;
Column I: 2 μL of the solution in column H was diluted with 8 μL of DMSO to obtain a final concentration of 0.0256 μM; and
Column J: 2 μL of the solution in column I was diluted with 8 μL of DMSO to obtain a final concentration of 0.00512 μM.
The suspension was centrifuged for 1 minute at 1000 rpm by using a low-speed centrifuge.
(2) 3×Compound Preparation: (Diluted in a 96-Well Cell Culture Plate)
3 μL of each of the solutions in columns B to J was pipetted into […] of complete medium by a 10 μL manual pipette to obtain 3×compound solutions with a final concentration of 30000, 6000, 1200, 240, 48, 9.6, 1.92, 0.384 and 0.0768 nM, respectively; and 3 μL of DMSO was pipetted into […] of complete medium as a control. The resulting 96-well cell culture plate was put on an oscillator to be oscillated at 500 rpm for 30 minutes.
(1) The prepared 3×compound solutions with the above concentrations were each pipetted by a manual pipette with its volume set to 50 μL into a corresponding well of the 96-well plate after overnight culture on the first day, and the total culture volume of each well was 150 μL. The final concentrations of the compounds in the 96-well plate were 10 μM, 2 μM, 400 nM, 80 nM, 16 nM, 3.2 nM, 0.64 nM, 0.128 nM and 0.0256 nM, respectively. The resulting 96-well plate was put on an oscillator to be oscillated at 500 rpm for 10 minutes.
(2) The 96-well plate as prepared was put in a CO2 incubator for 72-hour culture.
(1) CCK-8 test solution was pipetted into the 96-well cell culture plate in an amount of 15 μL/well by a pipette with a volume set to 15 μL.
(2) The 96-well plate was put in the CO2 incubator for 4-hour culture. […]

[2] = test system: MV4-11 xenograft tumor; assay: In vivo efficacy test, MV4-11 xenograft tumor model in mice; settings: NOD-SCID mice, 5 mg/kg qd gavage, 14 days
Excerpt: EXAMPLE 11 In Vivo Efficacy Test of the Compound of the Present Application
Objective: To test the inhibitory effect of the test compound on the growth of xenograft tumor in nude mice with MV4-11 leukemia.
Method: NOD-SCID mice were subcutaneously inoculated with MV4-11 cells to establish an MV4-11 xenograft tumor model in mice. 16 days after inoculation (d16), average tumor volume was about 210 mm^3. According to the tumor volumes, the tumor-bearing mice were grouped in a random block method, with 6 mice in each group. The groups included a solvent control group, an ABBV-744 control group, and a test sample group, the dosage was 5 mg/kg mouse body weight, and the dose volume was 10 mL/kg mouse body weight, once a day. Each group was gavage administered for 14 consecutive days, and the solvent control group was gavage administered with a blank solvent (20% […] solution). Tumor volumes were measured twice weekly after administration of the test drug. The animals were euthanized after the test.

[3] = target: T1, hERG (Homo sapiens, UniProt Q12809); assay: hERG inhibition test, whole-cell patch clamp in HEK293 cells stably expressing the hERG ion channel; format: cell-based; settings: human, HEK293 cells stably expressing the hERG ion channel
T1 construct: expressed in transfected cells; host or cells: HEK293 cells stably expressing hERG
T1 sequence (Q12809 whole entry): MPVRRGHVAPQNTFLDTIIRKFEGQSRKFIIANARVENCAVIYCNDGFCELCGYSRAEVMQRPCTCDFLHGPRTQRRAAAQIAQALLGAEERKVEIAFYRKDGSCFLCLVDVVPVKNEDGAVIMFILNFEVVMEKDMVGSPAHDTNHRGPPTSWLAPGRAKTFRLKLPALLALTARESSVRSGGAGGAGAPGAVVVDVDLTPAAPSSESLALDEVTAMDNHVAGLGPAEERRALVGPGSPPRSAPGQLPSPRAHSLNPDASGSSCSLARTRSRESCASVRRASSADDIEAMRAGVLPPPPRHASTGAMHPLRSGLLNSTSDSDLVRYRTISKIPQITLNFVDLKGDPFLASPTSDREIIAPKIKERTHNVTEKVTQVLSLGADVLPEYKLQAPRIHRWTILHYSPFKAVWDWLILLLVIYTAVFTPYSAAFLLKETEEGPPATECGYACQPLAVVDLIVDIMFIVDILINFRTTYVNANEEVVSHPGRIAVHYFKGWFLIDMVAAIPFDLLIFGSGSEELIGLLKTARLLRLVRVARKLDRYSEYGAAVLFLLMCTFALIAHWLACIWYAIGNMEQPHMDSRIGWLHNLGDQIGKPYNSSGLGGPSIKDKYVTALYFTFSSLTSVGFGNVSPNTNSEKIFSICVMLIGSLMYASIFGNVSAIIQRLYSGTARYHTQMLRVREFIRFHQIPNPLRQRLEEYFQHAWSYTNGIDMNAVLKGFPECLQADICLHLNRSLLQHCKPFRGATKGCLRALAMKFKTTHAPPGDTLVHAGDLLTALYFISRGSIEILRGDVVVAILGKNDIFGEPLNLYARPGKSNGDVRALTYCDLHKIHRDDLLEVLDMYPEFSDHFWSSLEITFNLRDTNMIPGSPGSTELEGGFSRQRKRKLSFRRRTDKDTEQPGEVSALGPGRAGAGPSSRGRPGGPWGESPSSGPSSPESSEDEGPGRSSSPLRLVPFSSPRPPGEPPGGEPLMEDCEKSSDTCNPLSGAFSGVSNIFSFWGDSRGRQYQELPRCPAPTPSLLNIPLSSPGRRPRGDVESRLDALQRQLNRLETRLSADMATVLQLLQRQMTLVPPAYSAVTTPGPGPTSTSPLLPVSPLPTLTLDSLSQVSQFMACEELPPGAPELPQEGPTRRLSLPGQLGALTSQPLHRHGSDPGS
Protocol: (§1) An hERG current was recorded by the whole-cell patch clamp technique. A suspension of HEK293 cells stably expressing the hERG ion channel was added to a 35 mm culture dish, and the culture dish was put on a stage of an inverted microscope. […] The pulse program was repeated every 15 seconds throughout the whole test. After the current became stable, the administration method of continuous extracellular perfusion from low concentration to high concentration was used, and the perfusion started from low concentration and continued until the drug effect was stable, and then the perfusion of the next concentration was performed.
(§2) After the test, stimulus release and signal acquisition were carried out through PatchMaster software. Graphpad Prism 8.0 was used for further data analysis and curve fitting. Effects of each compound at different concentrations were represented with an inhibition rate of the tail current. Inhibition rate=(peak tail current before administration—peak tail current after administration)/peak tail current before administration x 100%. Half-maximal inhibitory concentration IC50 of the test samples was obtained by the fitting analysis with Hill equation.

[4] = target: T2, hERG ion channel (Homo sapiens, UniProt Q12809); assay: as above; format: cell-based; settings: tail current, Hill equation fit
T2 construct: expressed in transfected cells; host or cells: HEK293 cells stably expressing hERG
T2 sequence (Q12809 whole entry): as above
Protocol: as §1, §2

[5] = read-out: Average hERG inhibition rate
[6] = read-out: hERG Inhibition rate, Cell 1
[7] = read-out: hERG Inhibition rate, Cell 2

SMILES: CCNC(=O)c1cc2c(-c3cc(C(C)(C)O)ccc3Oc3c(C)cc(F)cc3C)cn(C)c(=O)c2[nH]1 [ABBV-744, reference compound]
- pIC50 [1]: 8.14
- Relative tumor proliferation rate T/C [2]: 45.98%
- inhibition at 0.37 µM [3, 5]: 5.35%
- inhibition at 0.37 µM [3, 6]: 8.24%
- inhibition at 0.37 µM [3, 7]: 2.46%
- inhibition at 1.11 µM [3, 5]: 17.4%
- inhibition at 1.11 µM [3, 6]: 23%
- inhibition at 1.11 µM [3, 7]: 11.8%
- inhibition at 3.33 µM [3, 5]: 54.7%
- inhibition at 3.33 µM [3, 6]: 57.7%
- inhibition at 3.33 µM [3, 7]: 51.7%
- inhibition at 10 µM [3, 5]: 87.6%
- inhibition at 10 µM [3, 6]: 87.9%
- inhibition at 10 µM [3, 7]: 87.3%
- inhibition at 30 µM [3, 5]: 99.1%
- inhibition at 30 µM [3, 6]: 99.4%
- inhibition at 30 µM [3, 7]: 98.7%
- pIC50 [4]: 5.51

SMILES: CCNC(=O)c1cc2c(-c3sc(C(C)(C)O)cc3N3CCc4cccc(F)c43)cn(C)c(=O)c2[nH]1 [Compound 2, N-ethyl-4-(3-(7-fluoroindolin-1-yl)-5-(2-hydroxypropyl-2-yl)thiophen-2-yl)-6-methyl-7-oxo-6,7-dihydro-1H-pyrrolo[2,3-c]pyridine-2-carboxamide]
- pIC50 [1]: 7.62

SMILES: CCNC(=O)c1cc2c(-c3sc(C(C)(C)O)cc3N3CCc4cccc(C)c43)cn(C)c(=O)c2[nH]1 [Compound 3, N-ethyl-4-(5-(2-hydroxypropyl-2-yl)-3-(7-methylindolin-1-yl)thiophen-2-yl)-6-met hyl-7-oxo-6,7-dihydro-1H-pyrrolo[2,3-c]pyridine-2-carboxamide]
- pIC50 [1]: 7.40

SMILES: CCNC(=O)c1cc2c(-c3sc(C(C)(C)O)cc3N3CCc4cc(F)ccc43)cn(C)c(=O)c2[nH]1 [Compound 4, N-ethyl-4-(3-(5-fluoroindolin-1-yl)-5-(2-hydroxypropyl-2-yl)thiophen-2-yl)-6-methyl-7-oxo-6,7-dihydro-1H-pyrrolo[2,3-c]pyridine-2-carboxamide]
- pIC50 [1]: 8.20

SMILES: CCNC(=O)c1cc2c(-c3sc(C(C)(C)O)cc3N3CCc4cc(C(F)(F)F)ccc43)cn(C)c(=O)c2[nH]1 [Compound 5, N-ethyl-4-(5-(2-hydroxypropyl-2-yl)-3-(5-trifluoromethylindolin-1-yl)thiophen-2-y I)-6-methyl-7-oxo-6,7-dihydro-1H-pyrrolo[2,3-c]pyridine-2-carboxamide]
- pIC50 [1]: 7.92

SMILES: CCNC(=O)c1cc2c(-c3sc(C(C)(C)O)cc3N3CCCc4cc(F)ccc43)cn(C)c(=O)c2[nH]1 [Compound 6, N-ethyl-4-(5-(2-hydroxypropyl-2-yl)-3-(6-fluoro-3,4-dihydroquinolin-1(2H)-yl)thiophen-2-yl)-6-methyl-7-oxo-6,7-dihydro-1H-pyrrolo[2,3-c]pyridine-2-carboxamide]
- pIC50 [1]: 8.09

SMILES: CCNC(=O)c1cc2c(-c3sc(C(C)(C)O)cc3N3CCc4cccc(C(F)(F)F)c43)cn(C)c(=O)c2[nH]1 [Compound 7, N-ethyl-4-(5-(2-hydroxypropyl-2-yl)-3-(7-(trifluoromethyl)indolin-1-yl)thiophen-2-yl)-6-methyl-7-oxo-6,7-dihydro-1H-pyrrolo[2,3-c]pyridine-2-carboxamide]
- pIC50 [1]: 7.76
